These results are taken from US20260034123A1 (Cedilla Therapeutics, Inc., priority 2022, published 2026).

One experiment has as its system Kuramochi cells RB-WT. Kind of experiment: IncuCyte Kuramochi cell proliferation assay, RB-WT. It is filed as cell-based. The note with it: 72 hours, cell count. The protocol: IncuCyte® assay was used to measure the effect of disclosed compounds on cell proliferation. Fluorescent microscopy images of cells were taken immediately after compound treatment and 72 hours later. Image analysis software was used to obtain cell counts as a function of compound concentration. Kuramochi cells labeled with mApple-H2B were seeded on 384-well assay-ready plates. Plates were placed in an IncuCyte® (Sartorius) and scanned at 0 and 72 hours. IncuCyte® software was used to count the number of fluorescent nuclei in each well. The fold change in cell count from 0 to 72 hours in wells treated with increasing compounds concentrations (10 pts, 1/2 log dilution, 20 µM top concentration) was normalized to DMSO control wells. The normalized cell counts were fit with dose response curves and a GI50 was calculated.

The next experiment has as its target CDK2/Cyclin E1 (Homo sapiens, UniProt P24941). As to the kind of experiment: ADP-Glo Luminescent Kinase Assay (CDK2/E1-37C). It is filed as biochemical. The note with it: 0.18 nM CDK2/Cyclin E1, 100 μM ATP, Histone H1, 37° C.; read-out: ADPGLO (CDK2/E1-37C): IC50. As to the method:
Inhibition of CDK2/Cyclin E1 activity by the presence of small molecules was evaluated using ADP-Glo Luminescent Kinase Assay (Promega). Activated CDK2/Cyclin E1 was incubated with its substrate Histone H1 (SignalChem H10-54N) in the kinase reaction buffer (100 μM ATP, 50 mM HEPES pH 7.5, 10 mM MgCl2, 1 mM EDTA, 2 mM DTT, 0.01% Brij35, 0.5 mg/mL BSA). Luminescence was recorded with an Envision plate reader (PerkinElmer).
Dose titrations of inhibitors in 100% DMSO were combined with 0.36 nM CDK2/Cyclin E1 in reaction buffer. The mixtures were incubated for 60 minutes at 37° C. before the addition of ATP and Histone H1 substrate to initiate the kinase reaction. The final conditions were 0.18 nM CDK2/Cyclin E1, 100 μM ATP, and […] Histone H1. The reactions were incubated at 37° C. for 90 minutes before being stopped with the addition of ADP-Glo reagent. This mixture was incubated at room temperature for 60 minutes before Kinase Detection Solution is added to generate luminescence. The stopped reactions were analyzed on an Envision plate reader. The conversion ratios were normalized to yield % activity, plotted against compound concentration, and fit to a four-parameter equation to determine the IC50 for each compound.
In general terms: ADP-Glo first removes unused ATP, then detects ADP through luciferase.

For `O=C(NS(=O)(=O)c1cccc(C2CCCCC2)c1)C1CN(C(=O)c2cnn(Cc3ccccc3)c2)CC12CN(C(=O)[C@H]1CC1(F)F)C2` (stereo partly drawn) [Compound I-1, 6-(1-benzyl-1H-pyrazole-4-carbonyl)-N-((3-cyclohexylphenyl)sulfonyl)-2-((R)-2,2-difluorocyclopropane-1-carbonyl)-2,6-diazaspiro[3.4]octane-8-carboxamide], the IC50 is > 10 µM in the experiment on Kuramochi cells RB-WT and 5 to 10 µM on CDK2/Cyclin E1.
The matching figures for `N#Cc1ccc(Cn2cc(C(=O)N3CC(CS(=O)(=O)Cc4cccc(-c5ccc(C(F)(F)F)cc5)n4)C4(C3)CN(C(=O)C3(C(F)(F)F)CC3)C4)cn2)cc1` (centres unmarked) [Compound I-2]: > 10 µM and 5 to 10 µM.
Consider `O=C(c1cnc(O)cn1)N1CC(CS(=O)(=O)Cc2cccc(-c3ccc(C(F)(F)F)cc3)n2)C2(C1)CN(C(=O)[C@H]1CC1(F)F)C2` (stereo partly drawn) [Compound I-3, (2-((R)-2,2-difluorocyclopropane-1-carbonyl)-8-((((6-(4-(trifluoromethyl)phenyl)pyridin-2-yl)methyl)sulfonyl)methyl)-2,6-diazaspiro[3.4]octan-6-yl)(5-hydroxypyrazin-2-yl)methanone], for which the IC50 in the experiment on Kuramochi cells RB-WT and on CDK2/Cyclin E1 was > 10 µM throughout.
On to `O=C(O)c1c(COC[C@@H]2CN(C(=O)c3cnn(Cc4ccc(F)cc4)c3)CC23CN(C(=O)C2(C(F)(F)F)CC2)C3)cccc1C1CCC(F)(F)CC1` [Compound I-51, (S)-2-(4,4-difluorocyclohexyl)-6-(((6-(1-(4-fluorobenzyl)-1H-pyrazole-4-carbonyl)-2-(1-(trifluoromethyl)cyclopropanecarbonyl)-2,6-diazaspiro[3.4]octan-8-yl)methoxy)methyl) benzoic acid], for which the IC50 was 5 to 10 µM in the experiment with Kuramochi cells RB-WT and ≤ 0.5 µM at CDK2/Cyclin E1.
For `O=C(O)c1c(COCC2CN(C(=O)c3cnn(Cc4ccc(C(F)(F)F)cc4)c3)CC23CN(C(=O)C2(C(F)(F)F)CC2)C3)cccc1C1CCC(C(F)(F)F)CC1` (centres unmarked) [Compound I-52, 2-(((6-(1-(4-(trifluoromethyl)benzyl)-1H-pyrazole-4-carbonyl)-2-(1-(trifluoromethyl)cyclopropane-1-carbonyl)-2,6-diazaspiro[3.4]octan-8-yl)methoxy)methyl)-6-(4-(trifluoromethyl)cyclohexyl)benzoic acid], in that order: > 10 µM and 5 to 10 µM.
The matching figures for `O=C(NS(=O)(=O)c1cccc(C2CCOCC2)c1)C1CN(c2cc(F)cc3ncsc23)CC12CN(C(=O)C1(C(F)(F)F)CC1)C2` (centres unmarked) [Compound I-53, 6-(5-fluorobenzo[d]thiazol-7-yl)-N-((3-(tetrahydro-2H-pyran-4-yl)phenyl)sulfonyl)-2-(1-(trifluoromethyl)cyclopropane-1-carbonyl)-2,6-diazaspiro[3.4]octane-8-carboxamide]: > 10 µM and > 10 µM.
The matching figures for `CC1(C)C[C@@H]1C(=O)N1CC2(CN(C(=O)c3cnn(Cc4ccccc4C(=O)O)c3)C[C@H]2COCc2cccc(C3CCC(C(F)(F)F)CC3)n2)C1` (stereo partly drawn) [Compound I-54, 2-((4-((S)-2-((S)-2,2-dimethylcyclopropane-1-carbonyl)-8-(((6-(4-(trifluoromethyl)cyclohexyl)pyridin-2-yl)methoxy)methyl)-2,6-diazaspiro[3.4]octane-6-carbonyl)-1H-pyrazol-1-yl)methyl)benzoic acid]: > 10 µM and ≤ 0.5 µM.
As for `COC(=O)c1c(O)cc(COCC2CN(C(=O)c3cnn(Cc4ccc(C(F)(F)F)cc4)c3)CC23CN(C(=O)C2(C(F)(F)F)CC2)C3)cc1-c1ccc(C(F)(F)F)cc1` (centres unmarked) [Compound I-55, methyl 3-hydroxy-4′-(trifluoromethyl)-5-(((6-(1-(4-(trifluoromethyl)benzyl)-1H-pyrazole-4-carbonyl)-2-(1-(trifluoromethyl)cyclopropane-1-carbonyl)-2,6-diazaspiro[3.4]octan-8-yl)methoxy)methyl)-[1,1′-biphenyl]-2-carboxylate], the values for the IC50 in the experiment with Kuramochi cells RB-WT and on CDK2/Cyclin E1 were 5 to 10 µM and > 10 µM, respectively.
The matching figures for `CC1(C)C[C@@H]1C(=O)N1CC2(CN(C(=O)c3cncs3)CC2COCC(=O)N2CCC(c3ccc(C(=O)O)cc3OC3CCCCC3)CC2)C1` (stereo partly drawn) [Compound I-56, 3-(cyclohexyloxy)-4-(1-(2-((2-((S)-2,2-dimethylcyclopropane-1-carbonyl)-6-(thiazole-5-carbonyl)-2,6-diazaspiro[3.4]octan-8-yl)methoxy)acetyl)piperidin-4-yl)benzoic acid]: > 10 µM and 5 to 10 µM.
The matching figures for `CC(C)(C)OC(=O)c1c(COCC2CN(c3cc(F)cc4ncsc34)CC23CN(C(=O)C2(C(F)(F)F)CC2)C3)cccc1C1CCC(C(F)(F)F)CC1` (centres unmarked) [Compound I-57, tert-butyl 2-(((6-(5-fluorobenzo[d]thiazol-7-yl)-2-(1-(trifluoromethyl)cyclopropane-1-carbonyl)-2,6-diazaspiro[3.4]octan-8-yl)methoxy)methyl)-6-(4-(trifluoromethyl)cyclohexyl)benzoate]: > 10 µM and > 10 µM.
The matching figures for `O=C(NS(=O)(=O)c1cccc(C2CCOCC2)c1)[C@@H]1CN(C(=O)c2cnn(Cc3ccc(C(F)(F)F)cc3)c2)CC12CN(C(=O)C1(C(F)(F)F)CC1)C2` [Compound I-58, (S)—N-((3-(tetrahydro-2H-pyran-4-yl)phenyl)sulfonyl)-6-(1-(4-(trifluoromethyl)benzyl)-1H-pyrazole-4-carbonyl)-2-(1-(trifluoromethyl)cyclopropane-1-carbonyl)-2,6-diazaspiro[3.4]octane-8-carboxamide]: > 10 µM and > 10 µM.
Regarding `N#Cc1ccc(Cn2cc(C(=O)N3CC(C(=O)NS(=O)(=O)c4cccc(C5(C(F)(F)F)CC5)c4)C4(C3)CN(C(=O)C3(C(F)(F)F)CC3)C4)cn2)cc1` (centres unmarked) [Compound I-59, 6-(1-(4-cyanobenzyl)-1H-pyrazole-4-carbonyl)-2-(1-(trifluoromethyl)cyclopropane-1-carbonyl)-N-((3-(1-(trifluoromethyl)cyclopropyl)phenyl)sulfonyl)-2,6-diazaspiro[3.4]octane-8-carboxamide], the IC50 with Kuramochi cells RB-WT and on CDK2/Cyclin E1 was > 10 µM throughout.
Take `CC(C)(C(=O)N1CC2(CN(C(=O)c3cnn(Cc4ccc(F)cc4)c3)C[C@H]2COCc2ccccc2C(=O)O)C1)C(F)(F)F` [I′-11]: the IC50 at CDK2/Cyclin E1 is > 10 µM.
Still for that read-out and setting: the figure for `CC(C)(C(=O)N1CC2(CN(C(=O)c3cnn(Cc4ccc(F)cc4)c3)C[C@H]2COCc2cccc(C3=CCCC3)c2C(=O)O)C1)C(F)(F)F` [I′-12] is ≤ 0.5 µM; for `CC(C)(C(=O)N1CC2(CN(C(=O)c3cnn(Cc4ccc(F)cc4)c3)C[C@H]2COCc2c(F)ccc(C3CCC(F)(F)CC3)c2C(=O)O)C1)C(F)(F)F` [I′-13] it is ≤ 0.5 µM; for `CC(C)(C(=O)N1CC2(C1)CN(c1cc(F)c(F)c3ncsc13)C[C@H]2COCc1c(F)ccc(C2CCC(F)(F)CC2)c1C(=O)O)C(F)(F)F` [I′-14, (S)-2-(((6-(4,5-difluorobenzo[d]thiazol-7-yl)-2-(3,3,3-trifluoro-2,2-dimethylpropanoyl)-2,6-diazaspiro[3.4]octan-8-yl)methoxy)methyl)-6-(4,4-difluorocyclohexyl)-3-fluorobenzoic acid] it is ≤ 0.5 µM.
Consider `O=C(O)c1c(COC[C@@H]2CN(C(=O)c3cnn(Cc4ccc(F)cc4)c3)CC23CN(C(=O)C2CCOCC2)C3)cccc1C1CCC(F)(F)CC1` [I′-15], for which the IC50 on CDK2/Cyclin E1 fell in the range of 0.5 to 5 µM.
Take `CC(C)C(=O)N1CC2(CN(C(=O)c3cnn(Cc4ccc(F)cc4)c3)C[C@H]2COCc2cccc(C3CCC(F)(F)CC3)c2C(=O)O)C1` [I′-16, (S)-2-(4,4-difluorocyclohexyl)-6-(((6-(1-(4-fluorobenzyl)-1H-pyrazole-4-carbonyl)-2-isobutyryl-2,6-diazaspiro[3.4]octan-8-yl)methoxy)methyl)benzoic acid]: the IC50 on CDK2/Cyclin E1 was ≤ 0.5 µM.
Same read-out and setting: the figure for `O=C(O)c1c(COC[C@@H]2CN(C(=O)c3cnn(Cc4ccc(F)cc4)c3)CC23CN(C(=O)C24CC(C2)C4)C3)cccc1C1CCC(F)(F)CC1` [I′-17, (S)-2-(((2-(bicyclo[11.1.1]pentane-1-carbonyl)-6-(1-(4-fluorobenzyl)-1H-pyrazole-4-carbonyl)-2,6-diazaspiro[3.4]octan-8-yl)methoxy)methyl)-6-(4,4-difluorocyclohexyl)benzoic acid] is ≤ 0.5 µM; for `CN(C)CCNC(=O)c1c(COC[C@@H]2CN(C(=O)c3cnn(Cc4ccc(F)cc4)c3)CC23CN(C(=O)C(C)(C)C(F)(F)F)C3)cccc1C1CCC(F)(F)CC1` [I′-18] it is ≤ 0.5 µM.
